Results taken from paper PMC10408038 (Journal of medicinal chemistry, 2022).
pIC50: −log10 of the molar value. One block for each compound: values may come before it.

Experiments:
NCI-H522 cells [1] = test: Cell viability assay; conditions: for Fold Change: ratio of IC50 (HCT-116)/ IC50 (NCI-H522); for fold increase of IC50 in the presence of Liproxstatin-1: NCI-H522, Liproxstatin-1 (0.25 μM); for pIC50: cell line not given
NCI-H522 cells [2] = test: C11-BODIPY lipid peroxidation assay; assay type: cell-based; conditions: 3 h or 6 h treatment
NCI-H522 cells [3] = test: Liproxstatin-1 rescue experiments; assay type: cell-based; conditions: for rescue of cytotoxicity by Liproxstatin-1: compound at 2–3 times the IC50, Liproxstatin-1 0.25 μM
NCI-H522 cells [4] = test: In-gel fluorescence labeling competition with probe; assay type: cell-based; conditions: competitor 20 μM
[5] = NMR kinetic study of thiol addition; assay type: physicochemical; conditions: DMSO-d6
NCI-H522 cells [6] = test: Incubation time50; assay type: cell-based; conditions: RSL3 0.5 μM, 45 2 μM
GPX4 = molecular target: T1, GPX4 (Homo sapiens, UniProt P36969); test: Pulldown with Biotin-TAMRA and western blot analysis, GPX4; assay type: cell-based; conditions: NCI-H522; probe 10 μM; western blot
T1 sequence (P36969 28-197 limits assumed): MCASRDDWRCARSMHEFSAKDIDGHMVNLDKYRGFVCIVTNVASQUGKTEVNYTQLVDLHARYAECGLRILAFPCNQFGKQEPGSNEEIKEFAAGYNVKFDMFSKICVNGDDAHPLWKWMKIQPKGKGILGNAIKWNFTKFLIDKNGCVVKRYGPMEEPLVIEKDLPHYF

GSTO1 = molecular target: T2, GSTO1 (Homo sapiens, UniProt P78417); test: Pulldown with Biotin-TAMRA and western blot analysis, GSTO1; assay type: cell-based; conditions: NCI-H522; probe 10 μM; western blot
T2 sequence (P78417 1-241): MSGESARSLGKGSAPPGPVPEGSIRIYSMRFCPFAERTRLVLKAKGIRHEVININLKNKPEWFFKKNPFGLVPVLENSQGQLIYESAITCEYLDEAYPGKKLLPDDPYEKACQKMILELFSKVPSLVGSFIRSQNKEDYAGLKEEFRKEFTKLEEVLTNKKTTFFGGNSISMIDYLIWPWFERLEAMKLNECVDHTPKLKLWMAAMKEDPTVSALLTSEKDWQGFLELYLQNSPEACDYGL

TXRD1 = molecular target: T3, TXRD1 (Homo sapiens, UniProt Q16881); test: Pulldown with Biotin-TAMRA and western blot analysis, TXRD1; assay type: cell-based; conditions: NCI-H522; western blot
T3 sequence (Q16881 151-649 limits assumed): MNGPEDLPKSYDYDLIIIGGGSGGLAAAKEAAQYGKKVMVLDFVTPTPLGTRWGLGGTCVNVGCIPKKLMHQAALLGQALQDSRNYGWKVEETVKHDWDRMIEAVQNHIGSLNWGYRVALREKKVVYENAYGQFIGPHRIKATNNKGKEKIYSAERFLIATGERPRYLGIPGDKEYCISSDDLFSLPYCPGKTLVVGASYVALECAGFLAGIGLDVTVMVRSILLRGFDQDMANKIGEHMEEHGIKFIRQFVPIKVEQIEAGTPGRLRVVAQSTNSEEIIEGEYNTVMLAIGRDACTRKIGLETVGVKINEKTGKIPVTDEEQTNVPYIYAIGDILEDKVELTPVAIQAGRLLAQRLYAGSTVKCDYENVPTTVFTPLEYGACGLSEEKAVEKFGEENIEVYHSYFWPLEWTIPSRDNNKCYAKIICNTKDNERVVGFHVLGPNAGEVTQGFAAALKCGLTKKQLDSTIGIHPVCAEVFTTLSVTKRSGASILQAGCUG

[7] = in the presence of DABCO, N-Boc-cysteine methyl ester 10 equiv.

Compound: 2-ethynyl-N-(4-methoxyphenyl)thiazole-5-carboxamide [Compound 8]
Fold Change (NCI-H522 cells [1]): 12.52

Compound: 2-ethynyl-N-phenylthiazole-5-carboxamide [Compound 9]
Fold Change (NCI-H522 cells [1]): 7.39

Compound: C#Cc1nc(C(=O)N2CCN(C(c3ccc(Cl)cc3)c3ccc(Cl)cc3)CC2)cs1 [BCP-T.A, (4-(bis(4-chlorophenyl)methyl)piperazin-1-yl)(2-ethynylthiazol-4-yl)methanone]
C11-Bodipy oxidation (lipid peroxide levels) versus DMSO (NCI-H522 cells [2]): increases lipid peroxides
rescue of cytotoxicity by Liproxstatin-1 (NCI-H522 cells [3]): rescues cells
fold increase of IC50 in the presence of Liproxstatin-1 (NCI-H522 cells [1]): approximately 500 fold

Compound: C#CC1=Nc2ccccc2C(C)(C)O1 [Compound 2, 2-ethynyl-4,4-dimethyl-4H-benzo[d][1,3]oxazine, reference compound]
competition with probe (65) labeling (NCI-H522 cells [4]): high competition
rescue of cytotoxicity by Liproxstatin-1 (NCI-H522 cells [3]): significant rescue

Compound: C#Cc1nc(C(=O)OCC)cs1 [Compound 22, ethyl 2-ethynylthiazole-4-carboxylate]
cells rescued by Liproxstatin-1 (NCI-H522 cells [3]; (22) 10 μM, Liproxstatin-1 0.25 μM): 100%
half-life (t1/2) of thiol addition ([5]; in the absence of DABCO): 4.43 h
half-life (t1/2) of thiol addition [5, 7]: 0.315 h

Compound: Cn1c(I)nc2ccccc21 [Compound 31, 2-iodo-1-methyl-1H-benzo[d]imidazole]
C11-Bodipy oxidation (lipid peroxide levels) versus DMSO (NCI-H522 cells [2]): indistinguishable from the corresponding DMSO treatment
rescue of cytotoxicity by Liproxstatin-1 (NCI-H522 cells [3]): kill NCI-H522 cells at the same rates both in the absence and presence of Liproxstatin-1

Compound: C=Cc1nc2ccccc2n1C [Compound 39, 1-methyl-2-vinyl-1H-benzo[d]imidazole]
C11-Bodipy oxidation (lipid peroxide levels) versus DMSO (NCI-H522 cells [2]): marginally increase C11-Bodipy oxidation
rescue of cytotoxicity by Liproxstatin-1 (NCI-H522 cells [3]): kill NCI-H522 cells at the same rates both in the absence and presence of Liproxstatin-1

Compound: C=Cc1nc2ccccc2[se]1 [Compound 42, 2-vinylbenzo[d][1,3]selenazole]
C11-Bodipy oxidation (lipid peroxide levels) versus DMSO (NCI-H522 cells [2]): marginally increase C11-Bodipy oxidation

half-life (t1/2) of thiol addition ([5]; in the absence of DABCO): > 6 h
half-life (t1/2) of thiol addition [5, 7]: < 0.083 h
Compound: C#Cc1nc2ccccc2s1 [Compound 45, 2-ethynylbenzo[d]thiazole]
incubation time after which cells cannot be rescued by washing off the drug (NCI-H522 cells [6]): 1 to 2 h
competition with probe (65) labeling (NCI-H522 cells [4]): high competition

Compound: C#CCNC1CCC(c2csc(C#C)n2)=C1C (stereo not drawn) [Compound 64, 3-(2-ethynylthiazol-4-yl)-2-methyl-N-(prop-2-yn-1-yl)cyclopent-2-en-1-amine]
C11-Bodipy oxidation (lipid peroxide levels) versus DMSO (NCI-H522 cells [2]): increased levels of lipid peroxides
rescue of cytotoxicity by Liproxstatin-1 (NCI-H522 cells [3]): significant rescue

Compound: C#CCNC(=O)c1csc(C#C)n1 [Compound 65, 2-ethynyl-N-(prop-2-yn-1-yl)thiazole-4-carboxamide]
C11-Bodipy oxidation (lipid peroxide levels) versus DMSO (NCI-H522 cells [2]): increased levels of lipid peroxides
enrichment of GPX4 in pulldown (GPX4): selectively enriched
rescue of cytotoxicity by Liproxstatin-1 (NCI-H522 cells [3]): significant rescue
enrichment of GSTO1 in pulldown (GSTO1): selectively enriched

labeling of TXRD1 in pulldown (TXRD1): has the ability to label this protein
Compound: C#CCNC(=O)c1csc(C#Cc2ccccc2)n1 [Compound 66, 2-(phenylethynyl)-N-(prop-2-yn-1-yl)thiazole-4-carboxamide]

fold increase of IC50 in the presence of Liproxstatin-1 (NCI-H522 cells [1]): about 800 fold
Compound: Cc1onc(C(=O)N2CCN(C(c3ccc(Cl)cc3)c3ccc(Cl)cc3)CC2)c1[N+](=O)[O-] [ML-210, (4-(bis(4-chlorophenyl)methyl)piperazin-1-yl)(5-methyl-4-nitroisoxazol-3-yl)methanone, reference compound]

Compound: COC(=O)c1ccc([C@H]2c3[nH]c4ccccc4c3CC(C(=O)OC)N2C(=O)CCl)cc1 (stereo partly drawn) [RSL3, reference compound]
incubation time after which cells cannot be rescued by washing off the drug (NCI-H522 cells [6]): 1 to 2 h

Compound: CCOc1ccccc1-n1c(C(C)N2CCN(C(=O)COc3ccc(Cl)cc3)CC2)nc2ccccc2c1=O (stereo not drawn) [erastin]
competition with probe (65) labeling (NCI-H522 cells [4]): no competition was observed

pIC50 (NCI-H522 cells [1]; scheme 5 analogs): < 6.00
Compound: (4-ethylpiperazin-1-yl)(2-ethynylthiazol-5-yl)methanone [Compound 75]

pIC50 (NCI-H522 cells [1]; scheme 5D): 8.22
Compound: (E)-1-(4-(bis(4-chlorophenyl)methyl)piperazin-1-yl)-3-(2-ethynylthiazol-5-yl)prop-2-en-1-one [Compound 78]

Compound: (E)-N-(4-chlorophenyl)-3-(2-ethynylthiazol-5-yl)acrylamide [Compound 16]
Fold Change (NCI-H522 cells [1]): 62.64

Compound: N-(4-chlorophenyl)-2-ethynylthiazole-5-carboxamide [Compound 10]
Fold Change (NCI-H522 cells [1]): 29.40
